Data on two compounds can be found in patent publication US20120128745A1, “BENZYLIDENE MALONATES” (BASF SE, priority 2009, published 2012).

SMILES strings stand for the structures.

Data set [1] is described as follows: stabilization (photostability) of Butyl Methoxydibenzoylmethane in O/W emulsion film under solar simulator, HPLC. The class given is physicochemical. To be noted: 20 μm film on quartz plate, solar simulator 2 h (10 MED). The method, then: Testing of stabilization of Butyl Methoxydibenzoylmethane (BMDBM, Parsol 1789):
The photostability of Butyl Methoxydibenzoylmethane is determined by spreading the emulsion as a 20 μm thick film on a quartz plate. The film is irradiated using a solar simulator for 2 h (10 MED). After irradiation, the quartz plate is plunged into 5 ml of tetrahydrofurane. The amount of UV-A filter Butyl Methoxydibenzoylmethane is then determined using high performance liquid chromatography. The residual Butyl Methoxydibenzoylmethane is determined to be 47%.
The photostability of Butyl Methoxydibenzoylmethane in the comparative formulation C is determined as described above for formulation B. The residual Butyl Methoxydibenzoylmethane is determined to be 4%.

A short description of data set [2]: photostability of 4-Methoxybenzylidene-di-tert-butyl-malonate in O/W emulsion film under solar simulator, HPLC. To be noted: formulation A, solar simulator up to 10 h (50 MED). The class given is physicochemical. The method, then: The photostability of Butyl 4-Methoxybenzylidene-di-tert-butyl-malonate is determined by spreading the emulsion as a 20 μm thick film on four quartz plates. The plates are irradiated using a solar simulator for 1 h (5 MED), 2 h (10 MED), 4 h (20 MED) and 10 h (50 MED). After the indicated irradiation times one of the quartz plate is plunged into 5 ml of tetrahydrofurane. The amount of UV-B filter 4-Methoxybenzylidene-di-tert-butyl-malonate is then determined using high performance liquid chromatography. The residual 4-Methoxybenzylidene-di-tert-butyl-malonate is determined to be 100% (±1%) in all cases.

For the compound `COc1ccc(C(=O)CC(=O)c2ccc(C(C)(C)C)cc2)cc1` [Butyl Methoxydibenzoylmethane, 1,3-Propanedione, 1-[4-(1,1-dimethylethyl)phenyl]-3-(4-methoxyphenyl)-], the “residual Butyl Methoxydibenzoylmethane” value is 4% in data set [1] (comparative formulation C (without benzylidene malonate)) and 47% in data set [1] (formulation B (with 4-Methoxybenzylidene-di-tert-butyl-malonate)).

Take `COc1ccc(C=C(C(=O)OC(C)(C)C)C(=O)OC(C)(C)C)cc1` [Example 18, 4-Methoxybenzylidene-di-tert-butyl-malonate]: the “photostability in an O/W sunscreen formulation” value in data set [2] was “complete photostability”.
